In US10561681B2, “Antimetastatic 2H-selenopheno[3,2-h]chromenes, synthesis thereof, and methods of using same agents” (Latvian Institute of Organic Synthesis, priority 2016, dated 2020):
“And” between values parts separate entries of the source, which are not always exact repeats. Equal entries are not always repeated.

What was measured:
[1] = Acute p.o. toxicity, Up-and-Down Procedure (OECD 425); settings: mouse, in vivo, po; p.o. single dose, 6 weeks old male ICR mice
Protocol: Acute p.o. toxicity (LD50) was estimated by the Up-and-Down Procedure according to the OECD Test Guideline 425 [OECD (2001) Guideline for testing of chemicals OECD 425, acute oral toxicity—Up-and-Down Procedure, Paris, p. 1-26]. Animals were observed daily for clinical signs or mortality over a period of two weeks following the treatment. Compounds were dissolved in DMSO and then in PBS (pH 7.4; DMSO final concentration <1%). The test substance was administered in a single dose p.o. to mice. […]
Acute toxicity in vivo has been determined for I-10 and I-11 on 6 weeks old male ICR mice.

4T1 cells = assay: Orthotropic model of 4T1 murine metastatic breast cancer in BALB/c mice; format: in vivo, mouse; settings: 4T1 orthotropic; for Increase of spleen weight (splenomegaly) compared with healthy animals: control with tumors 316%
Protocol: Orthotropic model of mouse breast cancer was developed by injection of 4T1 cells in the mammary fat pad of syngeneic BALB/c mice. In this case, 4T1 cells develops solid tumors following by metastasis in lung, liver, lymph nodes, and brain (Aslakson at al., Cancer Res, 1992, 52, 1399-1405).
In our experiments seven-week-old female BALB/c mice were injected orthotopically into the fourth mammary fat pad with 10^5 4T1 cells suspended in 0.01 mL of PBS on day zero of the study. The compounds dissolved in DMSO, diluted with 0.1 mL water (DMSO final concentration 1%) and injected s.c. The compounds were administered at 1, 2, 3, 11 days, dose 20 mg/kg. Mice in the untreated group were similarly given four doses of 0.1 mL of water with DMSO. Tumor volume (tumor volume V=[…], wherein “a” is the maximal, and “b”—the minimal tumor diameter) was calculated twice per week. The mice were examined every other day on appearance, weight and behavior. The mice were sacrificed at day 16 of the experiment by decapitation under ketamine/xylazine anesthesia. After euthanasia, the mice were dissected. The primary tumor, liver and spleen were removed, weighed and studied. All metastases in the internal organs were described.

[2] = Basal cytotoxicity test, Neutral Red Uptake (NRU) assay; format: cell-based; settings: for LD50 at 24 h: mouse, po, acute oral LD50 calculated from 3T3 NRU IC50 by regression formula, read-out: Basal cytotoxicity Estimated* LD50; for IC50 at 24 h: normal mouse embryo fibroblasts, read-out: Cytotoxicity IC50, 3T3
Summary of the method: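 Balb/c 3T3 fibroblasts (9000 cells/well) exposed 24 h to compounds at 1–1000 μg/ml in DMEM with 5% FBS. Viability by Neutral Red uptake (3 h, 0.05 mg/mL), absorbance at 540 nm relative to untreated cells; IC50 from concentration–response.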

malignant tumor cells = assay: In vitro cytotoxicity on monolayer tumor cell lines (panel, summary in words); format: cell-based; settings: summary of Table 1
Protocol: Anticancer activity of selenopheno[h]chromenes was tested in vitro using cytotoxicity assay. Thus, monolayer tumor cell lines MDA-MB-435s (human melanoma), MCF-7 (human breast adenocarcinoma, estrogen-positive), MES-SA (human uterus sarcoma), HT-1080 (human fibrosarcoma), A549 (human lung carcinoma), SH-SY5Y (human neuroblastoma), CCL-8 (mouse sarcoma), MG-22A (mouse hepatoma), and HepG2 (human hepatocellular carcinoma) were cultured in standard medium DMEM (Dulbecco's modified Eagle's medium) (“Sigma”) supplemented with 10% fetal bovine serum (“Sigma”). About 2-9·10^4 cells/mL (depending on line nature) were placed in 96-well plates immediately after compounds were added to the wells. Untreated cells were used as a control. The plates were incubated for 72 h, 37° C., 5% CO2. The number of surviving cells was determined using 3-(4,5-dimethylthiazol-2-yl)-2,5-diphenyltetrazolinium bromide (MTT). MTT-test: after incubating culture medium was removed and 200 μL fresh medium with 10 mM HEPES was added in each well of the plate, than 20 μL MTT (2 mg/mL in HBSS) was added. After incubation (3 hr, 37° C., 5% CO2), the medium with MTT was removed and 200 μL DMSO were added at once to each sample. The samples were tested at 540 nm on Anthos HT II photometer.

Structure (SMILES)	LD50 at 2 weeks [1] [mg/kg]	Formation of metastases (4T1 cells)	Increase of spleen weight (splenomegaly) compared with healthy animals (4T1 cells) [%]	LD50 at 24 h [2]	IC50 at 24 h [2] [µM]	Cytotoxicity on cancer cell lines (malignant tumor cells)
COC(=O)c1cc2ccc3c(Br)c(CN4CCN(C)CC4)[se]c3c2oc1=O [Compound I-10, Methyl 7-bromo-8-((4-methylpiperazin-1-yl)methyl)-2-oxo-2H-selenopheno[3,2-h]chromene-3-carboxylate]	891	dramatically reduces the formation of metastases	256	4300 µmol/kg and 2300 mg/kg	86 ± 5	low toxic to the cancer cell lines
O=C(O)c1cc2ccc3c(Br)c(C4(O)CCCCC4)[se]c3c2oc1=O [Compound I-11, 7-Bromo-8-(1-hydroxycyclohexyl)-2-oxo-2H-selenopheno[3,2-h]chromene-3-carboxylic acid]	> 2000	dramatically reduces the formation of metastases	198	> 5800 µmol/kg and > 2730 mg/kg	> 213	complete loss of cytotoxicity
